Experimental data published in the METLIN SMRT retention time set (Domingo-Almenara et al. 2019).

Experiment: gradient 5% acetonitrile 3 min, to 50% in 2 min, to 85% in 15 min, held 3 min, 100 µL/min
Details: column: Zorbax Extend-C18 2.1 x 50 mm; eluents: water / acetonitrile, 0.1% formic acid
How it was run: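 Mixtures of ~100 pure standards were chromatographed on a Zorbax Extend-C18 column (2.1 × 50 mm, 1.8 μm) at 100 μL/min using water and acetonitrile, each with 0.1% formic acid. Detection used a quadrupole time-of-flight mass spectrometer in positive and negative ionization mode, and data collection spanned 3 months. Retention time was obtained from adduct peaks picked computationally and each checked manually.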

## CCn1cc(-c2nc(C(=O)Nc3ccc(F)c(C)c3)cs2)c2cccnc21
  RP-LC retention time: 987 s

## COC(=O)C(Cc1ccccc1)NC(=O)N1CCCn2nc(-c3cccnc3)cc2C1 (centres undefined)
  RP-LC retention time: 616 s

## COc1cc(NC(=O)Cc2csc3nc(-c4ccc(Cl)cc4)cn23)cc(OC)c1OC
  RP-LC retention time: 875 s

## Cc1ccccc1CNC(=O)C1(C)CCCN(C(=O)Nc2ccc(F)c(Cl)c2)C1 (centres undefined)
  RP-LC retention time: 1040 s

## CC(=O)N1CCc2cc(S(=O)(=O)C(C)CC(=O)N3CCN(c4ccc(C)cc4C)CC3)ccc21 (centres undefined)
  RP-LC retention time: 968 s

## CCc1nn(CC(=O)N2CCC(C(N)=O)CC2)c(=O)c2cc3occc3n12
  RP-LC retention time: 612 s

## Cc1cc(N(C)C)nc(NCCNC(=O)C(C)(C)Oc2ccc(Cl)cc2)n1
  RP-LC retention time: 598 s

## Cc1ccc(N2CC(c3noc(-c4cccs4)n3)CC2=O)cc1 (centres undefined)
  RP-LC retention time: 946 s

## CCN(CCCNC(=O)c1sc2ncccc2c1-n1cccc1)c1ccccc1
  RP-LC retention time: 709 s

## Cc1ccc(Oc2nccnc2N2CCCC(C(=O)NCc3ccc(C)c(C)c3)C2)cc1 (centres undefined)
  RP-LC retention time: 1140 s

## O=C(NCC1CCCO1)c1cccc(Nc2c(-c3ccccc3)nc3cnccn23)c1 (centres undefined)
  RP-LC retention time: 679 s

## Cc1[nH]c2ccc(F)cc2c1CCNS(=O)(=O)c1ccc(F)cc1
  RP-LC retention time: 865 s

## Fc1ccc(Cn2cc(-c3noc(-c4ccc5c(c4)OCO5)n3)nn2)cc1
  RP-LC retention time: 937 s

## COc1ccc(CN2CC3(CCN(S(=O)(=O)C(C)C)CC3)C2=O)cc1
  RP-LC retention time: 787 s

## Cn1cc(CN2CCC(C(=O)NCCc3ccco3)CC2)c2cc(Cl)ccc21
  RP-LC retention time: 679 s

## CCCC1=C(C(=O)OCC)C(c2ccccc2OC)NC(=O)N1 (centres undefined)
  RP-LC retention time: 797 s

## COc1ccc(-c2noc(-c3ccc(NC(=O)COc4ccc(Br)cc4)cc3)n2)cc1
  RP-LC retention time: 1280 s

## O=C(Cc1cccs1)N1CCN(c2ccc(-c3noc(C4CC4)n3)cc2)CC1
  RP-LC retention time: 934 s

## CCOc1cc2ncc(C#N)c(Nc3ccc(OCc4ccccn4)c(Cl)c3)c2cc1NC(=O)/C=C/CN(C)C
  RP-LC retention time: 620 s

## CCn1ccc(C(=O)Nc2ccc(N3CCN(c4ccccc4)C3=O)nc2)n1
  RP-LC retention time: 786 s

## OCCNCc1ccc(-c2cccc(Cl)c2)o1
  RP-LC retention time: 987 s

## CCOc1ccc(-c2csc(NC(=O)CCn3c(=O)oc4ccccc43)n2)cc1
  RP-LC retention time: 997 s

## O=c1c2cc(-c3ccc(F)cc3)nn2ccn1Cc1noc(CN2CCCCC2)n1
  RP-LC retention time: 656 s

## O=C(Nc1ccc(F)cc1)C1CCN(S(=O)(=O)c2cc(C(=O)N3CCOCC3)cs2)CC1
  RP-LC retention time: 755 s

## Cc1cccc(-c2nnc(-c3cccc(S(=O)(=O)N4CCC(C)CC4)c3)o2)c1
  RP-LC retention time: 1220 s

## O=C(Cc1ccsc1)NCCC1CCN(C(=O)Nc2cc(F)ccc2F)CC1
  RP-LC retention time: 915 s

## COc1ccc(C2(C(=O)N3CCC(Cc4nc(-c5ccccc5)no4)CC3)CC2)cc1
  RP-LC retention time: 1050 s

## O=C(NCc1ccc(F)cc1)N1CCc2nc(-c3ccccc3)ncc2C1
  RP-LC retention time: 874 s

## Cc1ccc(Cn2c(N3CCCC(C(=O)NCCC(C)C)C3)nc3ccsc3c2=O)cc1 (centres undefined)
  RP-LC retention time: 1030 s

## CCN1CCCn2cc(S(=O)(=O)Nc3ccc(OC)cc3)cc2C1=O
  RP-LC retention time: 680 s

## COc1cc(NC(=O)CN2C(=O)CN=C(c3ccccc3Cl)c3cc(Cl)ccc32)cc(OC)c1
  RP-LC retention time: 990 s

## CCc1ccc(CNC(=O)C2Cc3cc(S(=O)(=O)N(CC)CC)ccc3N2C(C)=O)cc1 (centres undefined)
  RP-LC retention time: 617 s

## Cn1c(=O)c2ccnn2c2ccc(C(=O)NCc3ccccc3)cc21
  RP-LC retention time: 665 s

## CC(C)NC(=O)c1ccc2c(c1)CCN2C(=O)C(C)C
  RP-LC retention time: 733 s

## CC(C)n1cnc2cc(CNC(=O)c3ccc(C#N)cc3F)ccc21
  RP-LC retention time: 597 s

## COc1ccccc1N1CCN(C(=O)c2csc3nc(-c4ccc(F)cc4)cn23)CC1
  RP-LC retention time: 879 s

## O=C(Cn1c(=O)n(-c2ccc(F)cc2)c2ncccc21)NCCN1CCCCC1
  RP-LC retention time: 592 s

## CN(CC(=O)Nc1cccnc1)c1nc2ccccc2s1
  RP-LC retention time: 568 s

## CSc1ccccc1CN1CCC(CNC(=O)C(=O)Nc2ccc3c(c2)OCO3)CC1
  RP-LC retention time: 586 s

## CCCCN(C)C(=O)c1cc(NC(=O)C(C)(C)C)cnc1N1CCNCC1
  RP-LC retention time: 622 s

## Cc1ccc(S(=O)(=O)N2CCC(CN3CCCCCC3)CC2)cc1Cl
  RP-LC retention time: 721 s

## COc1ccc(C)cc1NC(=O)Cn1c(C)nc2c(sc3nc(-c4ccccc4)ccc32)c1=O
  RP-LC retention time: 1110 s

## O=C(CSc1nnc2c3sc(N4CCCC4)nc3ncn12)Nc1ccccc1
  RP-LC retention time: 772 s

## Cc1c(C(=O)N2CCCC2)cnn1-c1ccc(-c2nc(C(C)(C)C)no2)cn1
  RP-LC retention time: 1010 s

## Cc1ccc(CNC(=O)CC2CCOC3(CCN(S(C)(=O)=O)CC3)C2)o1 (centres undefined)
  RP-LC retention time: 705 s

## CC(/C=C/C(=O)NO)=C\C(C)C(=O)c1ccc(N(C)C)cc1 (centres undefined)
  RP-LC retention time: 723 s

## Cc1ccc(C(CC(=O)NCCN2CCOCC2)N2Cc3ccccc3C2=O)cc1 (centres undefined)
  RP-LC retention time: 642 s

## CN1CCN(C(=O)c2c3c(nc4ccccc24)C(=O)N(C2CCCCC2)C3)CC1
  RP-LC retention time: 600 s

## CN(C)C(CNC(=O)C(=O)Nc1ccc(OC(F)(F)F)cc1)c1ccccc1Cl (centres undefined)
  RP-LC retention time: 622 s

## O=C1C(N2CCCN(S(=O)(=O)c3cccnc3)CC2)CCN1CC1CC1 (centres undefined)
  RP-LC retention time: 593 s

## O=c1c2sccc2n(Cc2nc(-c3ccc(Cl)c(F)c3)no2)c(=O)n1-c1ccc(F)cc1
  RP-LC retention time: 1080 s

## Cc1ccc(-c2nnc(-c3ccccc3Cl)o2)cc1S(=O)(=O)N1CCCCC1
  RP-LC retention time: 1200 s

## Cc1ccc(CC(=O)Nc2cc(-c3nnc(C4CC4)o3)sc2C)cc1
  RP-LC retention time: 981 s

## Cc1ccc2c(c1)N(C(=O)C1CCN(S(=O)(=O)c3cccnc3)CC1)CCO2
  RP-LC retention time: 823 s

## O=C(Cn1cc(S(=O)(=O)Cc2ccccc2F)c2ccccc21)NCC1CCCO1 (centres undefined)
  RP-LC retention time: 806 s

## Cc1cc2c(c(=O)n1Cc1ccccc1)C(C(C)C)C(C#N)=C(N)O2 (centres undefined)
  RP-LC retention time: 769 s

## CCCn1cc(CCNC(=O)c2ccc(F)cc2Cl)c2cccnc21
  RP-LC retention time: 788 s

## CCn1c(C2CCN(S(=O)(=O)c3cccc(C)c3)C2)nc2cccnc21 (centres undefined)
  RP-LC retention time: 771 s

## Cc1cccc(NC(=O)Cn2cnc3onc(C)c3c2=O)c1C
  RP-LC retention time: 754 s

## COc1ccc(C(=O)c2cnc3ccc(OC)cc3c2N2CCOCC2)cc1
  RP-LC retention time: 677 s

## CCc1cc(=O)n(CC(=O)Nc2cccc(C)c2)c(N2CCOCC2)n1
  RP-LC retention time: 770 s

## CCOc1ccc(C(=O)N2CCC3(C2)C(=O)N(C)c2ccccc23)cc1 (centres undefined)
  RP-LC retention time: 802 s

## O=C(NC1CCN(c2cc(-c3cccs3)[nH]n2)C1)c1cccc2[nH]ccc12 (centres undefined)
  RP-LC retention time: 672 s

## O=C(Cn1nc(C(=O)N2CCCC2)c2ccccc21)NC1CCCC1
  RP-LC retention time: 758 s

## O=S(=O)(NC1CCCC1)c1ccc(-c2nnc(C3CC3)o2)o1
  RP-LC retention time: 812 s

## CCc1sc(NC(=O)Cc2csc(C)n2)nc1-c1ccc(Br)cc1
  RP-LC retention time: 1080 s

## O=C(Nc1ccc2c(c1)C(=O)N1CCCCC1CCO2)c1ccco1 (centres undefined)
  RP-LC retention time: 692 s

## CCC1CCCCN1Cc1nc(Cn2ccn3nc(-c4ccc(C)cc4)cc3c2=O)no1 (centres undefined)
  RP-LC retention time: 726 s

## CCOc1ccccc1NC(=O)N1CCc2cn(CCOC)c3cccc(c23)C1
  RP-LC retention time: 827 s

## O=C(NCc1ccc(F)c(Cl)c1)c1cn2c(n1)CCCC2
  RP-LC retention time: 628 s

## CCc1ccc(NC(=O)Cn2c(C(C)C)nc3c(c2=O)CCN(Cc2ccccc2)C3)cc1
  RP-LC retention time: 705 s

## FC(F)(F)c1cccc(CSc2ccc(-n3ccnc3)nn2)c1
  RP-LC retention time: 671 s

## Cc1ccc(CNC(=O)Nc2ccc(-c3nc(-c4cc(C)ccc4C)co3)cc2)cc1
  RP-LC retention time: 1240 s

## O=C(c1ccc(Cl)cc1)N1CCC2(CC1)N=C(c1ccccc1)NO2
  RP-LC retention time: 824 s

## CC(C)CCN1CCC(N2CCN(S(=O)(=O)Cc3cccc(Cl)c3)CC2)C1=O (centres undefined)
  RP-LC retention time: 699 s

## Cc1ccc(S(=O)(=O)N2C[C@@H]3C[C@H](NC(=O)c4cccs4)[C@H]2C3)cc1Cl
  RP-LC retention time: 992 s

## Cc1noc(-c2cccn2Cc2ccccc2F)n1
  RP-LC retention time: 1050 s

## Cc1cc2nc(C(F)(F)F)c(=O)n(C(C)C(=O)N3CCN(c4ccccn4)CC3)c2cc1C (centres undefined)
  RP-LC retention time: 796 s

## CNC(=O)Nc1cccc(-c2ccc(OC)nn2)c1
  RP-LC retention time: 631 s

## CCCn1c(=O)sc2cc(S(=O)(=O)N3CCC(C(=O)Nc4cccc(F)c4)CC3)ccc21
  RP-LC retention time: 983 s

## CCOC(=O)C(Cc1c[nH]c2ccccc12)NC(=O)COc1ccc(Cl)cc1 (centres undefined)
  RP-LC retention time: 1010 s

## CNC(=O)c1cc(COc2ccc(NC(=O)c3ccc(Br)cc3)cc2)on1
  RP-LC retention time: 830 s

## Cc1csc(-c2cc(S(=O)(=O)NCCCN3CCOCC3)cn2CC(=O)N2CCCCC2)n1
  RP-LC retention time: 667 s

## Cc1cccc(-c2nc3ccccn3c2NC(=O)NCc2ccco2)c1
  RP-LC retention time: 640 s

## Cc1nccn1CC(=O)N1CCC(OCc2nc(C3CC3)no2)CC1
  RP-LC retention time: 577 s

## Cc1ccc(Nc2c(-c3ccccc3O)nc3cc(C)ccn23)cc1
  RP-LC retention time: 701 s

## COc1ccc(-c2ncc3c(n2)CCN(C(=O)c2ccc(Cl)cc2)C3)cc1
  RP-LC retention time: 969 s

## COc1ccc(C(O)CN2CCN(c3cccc(C)c3)CC2)cc1OC (centres undefined)
  RP-LC retention time: 653 s

## Cc1nc(-c2ccc(C(=O)NC3CCCC3)cc2)cs1
  RP-LC retention time: 825 s
